Test results taken from paper PMC8635029 (Frontiers in Pharmacology, 2021).

How the values were obtained:
[1] = biological target: T1, Nicotinic Acetylcholine α1, Bungarotoxin (Homo sapiens, UniProt P02708+P07510+Q07001); assay: In vitro SafetyScreen panel; assay type: binding
T1 construct: Eurofins Discovery (outsourced panel) PP223

[2] = biological target: T2, Cyclooxygenase COX-1 (Homo sapiens, UniProt P23219); assay: In vitro SafetyScreen panel; assay type: biochemical
T2 construct: Eurofins Discovery (contract panel) PP223
Protocol: (§1) In vitro off-target pharmacological activities of HSK21542 were evaluated on 86 targets using a SafetyScreen panel (Item PP223, target selectivity panel) and the corresponding methods could be found at https://www.eurofinsdiscoveryservices.com/.

[3] = biological target: T3, Cholinesterase, Acetyl, ACES (Homo sapiens, UniProt P22303); assay: In vitro SafetyScreen panel; assay type: biochemical
T3 construct: Eurofins Discovery (contract panel) PP223
Protocol: as §1

[4] = biological target: T4, Peptidase, CTSG (Cathepsin G) (Homo sapiens, UniProt P08311); assay: In vitro SafetyScreen panel; assay type: biochemical
T4 construct: Eurofins Discovery (outsourced panel) PP223
Protocol: as §1

[5] = biological target: T5, Monoamine Oxidase MAO-A (Homo sapiens, UniProt P21397); assay: In vitro SafetyScreen panel; assay type: biochemical
T5 construct: Eurofins Discovery (contract panel) Item PP223
Protocol: as §1

[6] = biological target: T6, Cyclooxygenase COX-2 (Homo sapiens, UniProt P35354); assay: In vitro SafetyScreen panel; assay type: biochemical
T6 construct: Eurofins Discovery (contract panel) Item PP223
Protocol: as §1

[7] = biological target: T7, Monoamine Oxidase MAO-B (Homo sapiens, UniProt P27338); assay: In vitro SafetyScreen panel; assay type: biochemical
T7 construct: Eurofins Discovery (outsourced panel) PP223
Protocol: as §1

[8] = biological target: T8, Protein Tyrosine Kinase, LCK (Homo sapiens, UniProt P06239); assay: In vitro SafetyScreen panel; assay type: biochemical
T8 construct: Eurofins Discovery (outsourced panel) PP223
Protocol: as §1

[9] = biological target: T9, Protein Tyrosine Kinase, Insulin Receptor (Homo sapiens, UniProt P06213); assay: In vitro SafetyScreen panel; assay type: biochemical
T9 construct: Eurofins Discovery (outsourced panel) PP223
Protocol: as §1

[10] = biological target: T10, human κ opioid receptor (Homo sapiens, UniProt P41145); assay: cAMP accumulation assay (forskolin-induced); assay type: cell-based; conditions: 2 μM forskolin, 30 min; read-out: EC50 for inhibition of forskolin-induced cAMP accumulation
T10 construct: expressed in transfected cells; cell membranes
Protocol: PathHunter® U2OS OPRK1 β-Arrestin cell line (DiscoverX) was maintained in McCoy’s 5A with 10% FBS, 250 μg/ml Hygromycin B and 500 μg/ml G418. When the cells reached to 80–90% confluence, they were collected and resuspended in HBSS (1X) containing 50 mM HEPES, 5 mM IBMX and 1% BSA stabilizer (lance® UltracAMP Kit, PerkinElmer) by adjusting the cell density to 3 × 10^5 cells/mL. The cells were divided into 384-well white plate (Corning®3572) at a volume of 5 μL, and were treated with compounds and 2 μM forskolin (an inducer of intracellular cAMP formation) for 30 min at room temperature. Subsequently, 5 μL of Eu-cAMP Tracer Working Solution and 5 μL of Ulight-anti-cAMP Working Solution per well were added to reach a final volume of 20 μL. The plate was incubated for 1 h at room temperature in the dark. The cAMP levels were then determined by using a microplate reader with TR-FRET assay ([Wang et al., 2014]). The results was expressed as (1–Signal[compound]/Signal[control]) × 100.

T8 sequence (P06239 whole entry): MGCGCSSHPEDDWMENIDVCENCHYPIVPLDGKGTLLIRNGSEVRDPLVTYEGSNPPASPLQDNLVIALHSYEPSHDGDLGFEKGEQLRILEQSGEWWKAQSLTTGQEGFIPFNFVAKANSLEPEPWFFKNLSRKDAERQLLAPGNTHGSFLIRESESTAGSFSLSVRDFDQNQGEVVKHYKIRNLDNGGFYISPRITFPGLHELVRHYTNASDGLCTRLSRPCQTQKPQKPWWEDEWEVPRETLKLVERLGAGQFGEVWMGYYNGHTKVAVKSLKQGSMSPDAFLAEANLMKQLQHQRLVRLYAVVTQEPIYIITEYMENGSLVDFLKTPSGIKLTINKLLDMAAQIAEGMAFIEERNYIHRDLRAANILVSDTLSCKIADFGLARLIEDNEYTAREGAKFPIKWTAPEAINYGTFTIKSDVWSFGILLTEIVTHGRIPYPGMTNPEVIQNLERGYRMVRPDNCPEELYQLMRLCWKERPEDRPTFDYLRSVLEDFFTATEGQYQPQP
T4 sequence (P08311 21-255): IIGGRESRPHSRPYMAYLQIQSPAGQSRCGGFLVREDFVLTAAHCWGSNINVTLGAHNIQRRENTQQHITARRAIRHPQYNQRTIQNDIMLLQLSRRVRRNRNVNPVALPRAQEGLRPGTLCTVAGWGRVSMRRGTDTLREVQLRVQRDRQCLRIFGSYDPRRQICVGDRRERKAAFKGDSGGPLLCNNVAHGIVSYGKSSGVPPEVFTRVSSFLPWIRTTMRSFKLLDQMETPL
T1 sequence (P07510 23-517): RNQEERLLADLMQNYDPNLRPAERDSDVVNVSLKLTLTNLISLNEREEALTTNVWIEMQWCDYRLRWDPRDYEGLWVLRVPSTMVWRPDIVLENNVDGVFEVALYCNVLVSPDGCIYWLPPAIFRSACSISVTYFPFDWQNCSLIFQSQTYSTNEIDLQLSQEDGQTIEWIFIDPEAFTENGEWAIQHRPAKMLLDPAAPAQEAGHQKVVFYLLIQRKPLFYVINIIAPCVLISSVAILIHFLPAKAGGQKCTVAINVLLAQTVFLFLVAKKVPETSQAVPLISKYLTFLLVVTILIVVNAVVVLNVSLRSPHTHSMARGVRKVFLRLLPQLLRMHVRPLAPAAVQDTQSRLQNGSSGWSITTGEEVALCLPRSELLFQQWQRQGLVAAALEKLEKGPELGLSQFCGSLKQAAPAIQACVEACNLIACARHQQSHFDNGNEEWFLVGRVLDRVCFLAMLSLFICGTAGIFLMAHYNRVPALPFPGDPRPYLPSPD
T1 sequence (Q07001 22-517): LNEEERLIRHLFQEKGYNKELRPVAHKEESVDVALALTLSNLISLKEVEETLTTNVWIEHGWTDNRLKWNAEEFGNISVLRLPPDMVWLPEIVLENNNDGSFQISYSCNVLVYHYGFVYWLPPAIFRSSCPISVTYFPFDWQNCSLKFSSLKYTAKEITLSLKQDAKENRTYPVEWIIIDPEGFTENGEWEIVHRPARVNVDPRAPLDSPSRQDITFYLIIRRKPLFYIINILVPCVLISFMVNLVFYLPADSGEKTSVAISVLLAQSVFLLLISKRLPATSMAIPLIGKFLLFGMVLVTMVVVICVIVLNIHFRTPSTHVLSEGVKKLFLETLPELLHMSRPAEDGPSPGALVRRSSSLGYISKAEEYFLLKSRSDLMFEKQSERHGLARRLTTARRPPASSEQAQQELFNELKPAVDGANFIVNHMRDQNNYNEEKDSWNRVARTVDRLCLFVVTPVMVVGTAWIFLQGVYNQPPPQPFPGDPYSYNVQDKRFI
T1 sequence (P11230 24-501, further chain): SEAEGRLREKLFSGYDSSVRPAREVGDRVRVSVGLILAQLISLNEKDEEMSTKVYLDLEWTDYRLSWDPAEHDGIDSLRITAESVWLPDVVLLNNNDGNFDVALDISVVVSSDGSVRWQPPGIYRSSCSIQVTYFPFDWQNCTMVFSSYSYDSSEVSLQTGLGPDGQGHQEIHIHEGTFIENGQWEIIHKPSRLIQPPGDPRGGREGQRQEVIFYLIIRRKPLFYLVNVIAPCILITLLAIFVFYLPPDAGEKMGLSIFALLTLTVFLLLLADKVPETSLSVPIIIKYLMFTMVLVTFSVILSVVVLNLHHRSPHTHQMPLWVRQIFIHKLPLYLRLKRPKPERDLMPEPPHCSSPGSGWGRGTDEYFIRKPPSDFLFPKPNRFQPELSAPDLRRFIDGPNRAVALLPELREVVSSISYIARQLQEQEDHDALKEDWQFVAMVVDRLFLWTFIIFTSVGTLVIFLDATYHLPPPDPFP
T1 sequence (P02708 21-457): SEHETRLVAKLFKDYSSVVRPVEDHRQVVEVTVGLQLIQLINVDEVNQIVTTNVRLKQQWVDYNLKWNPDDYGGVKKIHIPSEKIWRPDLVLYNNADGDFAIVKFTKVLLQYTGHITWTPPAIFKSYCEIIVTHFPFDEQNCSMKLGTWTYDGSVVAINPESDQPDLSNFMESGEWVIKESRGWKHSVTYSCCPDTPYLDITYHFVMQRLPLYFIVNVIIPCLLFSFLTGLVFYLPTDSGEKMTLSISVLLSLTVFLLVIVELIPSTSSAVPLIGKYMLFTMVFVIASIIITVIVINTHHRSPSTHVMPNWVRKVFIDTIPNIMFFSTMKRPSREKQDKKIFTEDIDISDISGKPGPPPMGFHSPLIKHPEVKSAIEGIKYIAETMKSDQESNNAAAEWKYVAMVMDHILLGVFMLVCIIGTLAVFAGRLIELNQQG
T3 sequence (P22303 32-614): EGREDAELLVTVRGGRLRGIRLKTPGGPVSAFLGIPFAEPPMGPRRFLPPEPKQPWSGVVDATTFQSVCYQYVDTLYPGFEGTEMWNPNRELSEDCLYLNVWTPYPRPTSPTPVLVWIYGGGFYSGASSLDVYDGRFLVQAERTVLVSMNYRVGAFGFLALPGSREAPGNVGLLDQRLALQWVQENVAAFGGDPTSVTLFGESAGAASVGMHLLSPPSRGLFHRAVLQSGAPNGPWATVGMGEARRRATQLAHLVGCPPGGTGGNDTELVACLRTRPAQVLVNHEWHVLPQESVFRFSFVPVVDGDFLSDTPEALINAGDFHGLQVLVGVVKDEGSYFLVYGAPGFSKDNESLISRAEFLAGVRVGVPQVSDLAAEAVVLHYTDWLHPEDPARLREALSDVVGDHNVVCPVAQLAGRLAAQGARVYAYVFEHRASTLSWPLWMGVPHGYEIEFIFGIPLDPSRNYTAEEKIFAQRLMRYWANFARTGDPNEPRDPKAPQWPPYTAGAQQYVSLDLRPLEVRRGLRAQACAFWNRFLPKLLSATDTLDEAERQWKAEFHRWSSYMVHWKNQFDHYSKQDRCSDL
T5 sequence (P21397 whole entry): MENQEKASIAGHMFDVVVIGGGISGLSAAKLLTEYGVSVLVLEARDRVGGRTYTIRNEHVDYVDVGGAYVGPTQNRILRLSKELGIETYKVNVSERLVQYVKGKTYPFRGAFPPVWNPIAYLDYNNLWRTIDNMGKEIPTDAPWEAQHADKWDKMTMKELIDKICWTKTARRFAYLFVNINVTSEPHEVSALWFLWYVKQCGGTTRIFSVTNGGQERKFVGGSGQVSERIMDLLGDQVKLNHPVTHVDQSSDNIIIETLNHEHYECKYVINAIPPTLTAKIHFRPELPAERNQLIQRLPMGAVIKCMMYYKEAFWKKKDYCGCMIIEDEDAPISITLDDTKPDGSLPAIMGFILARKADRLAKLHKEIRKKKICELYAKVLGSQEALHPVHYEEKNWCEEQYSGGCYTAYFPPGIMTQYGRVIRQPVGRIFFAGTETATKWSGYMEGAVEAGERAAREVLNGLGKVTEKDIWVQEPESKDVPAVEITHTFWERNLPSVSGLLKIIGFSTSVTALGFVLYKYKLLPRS
T7 sequence (P27338 whole entry): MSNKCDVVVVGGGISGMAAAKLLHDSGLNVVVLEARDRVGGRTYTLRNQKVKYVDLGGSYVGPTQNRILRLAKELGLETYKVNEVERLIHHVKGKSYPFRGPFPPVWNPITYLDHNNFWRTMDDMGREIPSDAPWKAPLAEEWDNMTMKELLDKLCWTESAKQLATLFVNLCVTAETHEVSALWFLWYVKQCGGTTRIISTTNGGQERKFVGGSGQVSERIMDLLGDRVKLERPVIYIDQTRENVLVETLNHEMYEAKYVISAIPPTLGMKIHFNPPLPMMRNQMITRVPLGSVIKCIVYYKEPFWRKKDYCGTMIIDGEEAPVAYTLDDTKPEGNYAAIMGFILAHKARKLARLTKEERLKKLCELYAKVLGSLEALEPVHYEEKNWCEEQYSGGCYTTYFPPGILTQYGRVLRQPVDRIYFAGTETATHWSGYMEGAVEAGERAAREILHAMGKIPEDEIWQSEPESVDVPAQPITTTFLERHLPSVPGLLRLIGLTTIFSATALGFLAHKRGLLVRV
T10 sequence (P41145 whole entry): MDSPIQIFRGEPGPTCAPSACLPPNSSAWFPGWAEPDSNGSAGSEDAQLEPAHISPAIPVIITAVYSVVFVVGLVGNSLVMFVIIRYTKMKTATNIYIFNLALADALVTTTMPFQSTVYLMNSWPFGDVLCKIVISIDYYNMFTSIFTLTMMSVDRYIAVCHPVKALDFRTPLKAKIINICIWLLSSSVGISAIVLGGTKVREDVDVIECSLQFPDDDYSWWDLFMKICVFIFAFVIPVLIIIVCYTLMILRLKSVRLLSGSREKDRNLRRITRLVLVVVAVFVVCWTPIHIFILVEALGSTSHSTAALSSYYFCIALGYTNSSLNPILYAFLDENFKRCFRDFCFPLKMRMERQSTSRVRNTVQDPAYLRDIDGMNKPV

Molecule CC(=O)N1CC2(CCN(C(=O)[C@@H](CCCCN)NC(=O)[C@@H](CC(C)C)NC(=O)[C@@H](Cc3ccccc3)NC(=O)[C@H](N)Cc3ccccc3)CC2)C1 [HSK21542, 7-(D-phenylalanyl-D-phenylalanyl-D-leucyl-D-lysyl)-2-acetyl-2,7-diazaspiro (3.5)nonane] has an inhibition at 10 µM [1] of -5%, an inhibition at 10 µM [2] of 9% and an inhibition at 10 µM [3] of 6%. For the same molecule, the inhibition at 10 µM [4] was -1%, the inhibition at 10 µM [5] was 0% and the inhibition at 10 µM [6] was 12%. It also gave an inhibition at 10 µM [7] of 11%, an inhibition at 10 µM [8] of -8% and an inhibition at 10 µM [9] of 17%. The EC50 [10] was 2.41 pM.
